# From PubChem BioAssay AID1421 (Emory University Molecular Libraries Screening Center, 2008)
# “And” between values parts separate entries of the source, which are not always exact repeats. Identical values can stand only once. The source made the active and inactive calls. How the calls were made is not given here.
# Target: Prostaglandin E2 receptor EP2 subtype (Homo sapiens) (UniProt P43116)
# Assay: compounds shifting PGE2 potency at EP2 – cell-based, human EP2, PGE2 EC50 shift, dose response (AID 1421)
# Settings: EP2-expressing cells, PGE2 EC50 shift by compound
# Sequence of Prostaglandin E2 receptor EP2 subtype (Homo sapiens) (P43116 whole entry, looked up): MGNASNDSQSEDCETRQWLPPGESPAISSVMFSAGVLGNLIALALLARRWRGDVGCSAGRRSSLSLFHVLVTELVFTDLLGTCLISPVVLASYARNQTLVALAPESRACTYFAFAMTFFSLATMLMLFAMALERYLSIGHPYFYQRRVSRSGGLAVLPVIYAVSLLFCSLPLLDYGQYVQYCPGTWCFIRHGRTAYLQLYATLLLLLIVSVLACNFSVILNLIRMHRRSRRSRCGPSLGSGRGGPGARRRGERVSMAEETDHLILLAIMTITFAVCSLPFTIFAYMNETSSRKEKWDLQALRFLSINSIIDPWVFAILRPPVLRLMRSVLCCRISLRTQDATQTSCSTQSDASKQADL
row,Structure (SMILES),outcome
1,FC(F)(F)c1cc(-c2ccccc2)nc(N2CCOCC2)n1,active
2,CC(C)(C)C1CCC(OC(=O)c2ccncc2)CC1 (stereo unspecified),active
3,O=C(Nc1ccccc1N1CCCCC1)c1cnccn1,active
4,CCOP(=O)(OCC)c1nc(-c2cccc3ccccc23)oc1NCc1ccc(OC)cc1,active
5,C=CCSc1nc2sc(C)c(C)c2c(=O)n1CC=C,active
6,CCOC(=O)c1cc(CC)sc1NC(=O)c1cc(OC)c(OC)c(OC)c1,active
7,COc1ccc(-c2nc(NC(C)=O)sc2-c2ccccc2)cc1,active

# Same assay, conditions: EP2-expressing cells, PGE2 EC50 shift by compound; measured here: PGE2 EC50 at 6.7 uM compound
row,Structure (SMILES),PGE2 EC50 with compound
1,CCOC(=O)C(Cc1ccccc1)(NC(C)=O)C(=O)OCC,1.39 nM
2,COc1cc(CN2CCC(C(=O)N3CCN(c4ccccc4F)CC3)CC2)cc(OC)c1OC,0.75 nM
3,FC(F)(F)c1cc(-c2ccccc2)nc(N2CCOCC2)n1,1.59 nM
4,CCc1oc2ccccc2c1C(=O)c1cc(Br)c(O)c(Br)c1,1.02 nM and 0.68 nM
5,CN(C)c1nc(N2CCOCC2)nc(N(c2ccccc2)c2ccccc2)n1,0.61 nM
6,CN(CC(=O)Nc1ccccc1-c1ccccc1)Cc1ccccc1Cl,0.95 nM
7,CCOCC(=O)Nc1cc(C(F)(F)F)ccc1Oc1cccc(Br)c1,0.49 nM
8,CC(C)(C)C1CCC(OC(=O)c2ccncc2)CC1 (stereo unspecified),1.16 nM
9,CCOC(=O)c1c(N)nn(C(=O)c2ccccc2)c1-c1ccccc1,2.88 nM
10,CN(C)c1ncc(S(=O)(=O)c2ccccc2)c(-c2ccccc2Cl)n1,0.72 nM
11,COC(=O)c1c(NC(=O)c2ccc(Br)s2)sc2c1CCC2,1.14 nM
12,Cc1ccc(C)c(N=C2CCCN2Cc2ccccc2)c1C#N,0.61 nM
13,O=C(Nc1ccccc1N1CCOCC1)c1ccc2ccccc2n1,0.82 nM
14,CCOC(=O)c1c(NC(=O)CSc2nnc(N)s2)sc(C)c1-c1ccc(C)cc1,0.48 nM
15,Cc1ccccc1-c1n[nH]c(=S)n1/N=C/c1ccc(-c2ccccc2Br)o1,2.42 nM
16,CCOC(=O)c1c(NC(=O)c2cccs2)sc2c1CCN(C(=O)OCC)C2,1.53 nM
17,CC(C)c1nc(SCc2c(F)cccc2Cl)c2c(=O)n(C)c(=O)n(C)c2n1,0.55 nM
18,Cc1cc(N)c2cc(NC(=O)Nc3ccc4nc(C)cc(N)c4c3)ccc2n1,2.6 nM
19,CCn1c(=NC(=O)c2ccc(S(=O)(=O)N3CCOCC3)cc2)sc2cccc(OC)c21,0.91 nM
20,Nn1cnc2c(c1=O)C1(CCCCC1)Cc1ccccc1-2,0.81 nM
21,c1ccc(CCc2ccccc2-c2nc(-c3cccnc3)no2)cc1,0.84 nM
22,Cn1c(=O)c2c(nc(SCC(=O)c3cccs3)n2Cc2ccc(F)cc2)n(C)c1=O,0.99 nM
23,CCOP(=O)(OCC)c1nc(-c2ccc(Cl)cc2)oc1NCc1ccccc1,0.73 nM
24,CCOP(=O)(OCC)c1nc(/C=C/c2ccccc2)oc1NCc1ccccc1,1.27 nM
25,Fc1cccc(CSc2ncnc3c2oc2ccccc23)c1,2.7 nM

row,Structure (SMILES),PGE2 EC50 with compound
1,Brc1ccccc1Cn1c(-c2cscn2)nc2ccccc21,0.94 nM
2,COC(=O)c1c(NC(=O)CSc2nnc(-c3cccnc3)n2Cc2ccco2)sc(C)c1C,0.79 nM
3,O=c1cc(N2CCCCC2)c(-c2ccccc2)nn1Cc1cccc(Cl)c1,0.32 nM
4,CC(=O)CSc1nc(-c2cccs2)c(C#N)c(=O)[nH]1,2.81 nM
5,COc1ccc(N=Cc2cc(Cc3ccccc3Cl)cc([N+](=O)[O-])c2O)cc1OC,0.65 nM
6,C/C=C/Cn1c(SCc2ccc(C)cc2)nc2c1c(=O)[nH]c(=O)n2C,0.78 nM
7,Cc1cccc(/C=C/c2nc3ccccc3c(=O)n2Cc2ccccc2)c1,2.67 nM
8,Cc1cc(C)c(S(=O)(=O)N(C2=NCCS2)S(=O)(=O)c2c(C)cc(C)cc2C)c(C)c1,0.99 nM
9,C=CCOc1ccccc1CNc1cccc(F)c1,0.84 nM
10,O=C(/C=C/Nc1ccccc1Oc1ccccc1)c1ccco1,2.67 nM
11,Cc1nc2c(-c3ccccc3)c(C)nn2c(C)c1CCC(=O)N1CCOCC1,1.09 nM
12,CCOC(=O)c1c(NC(=O)COC(=O)Cn2c(C)nc3ccccc32)sc2c1CCCC2,1.02 nM
13,CC(C)Cc1nc2sc3c(=O)[nH]cnc3c2c2c1CCC2,1.48 nM
14,CCc1ccc2[nH]c(=O)c(CN(Cc3nnnn3C3CCCC3)C3CCCCC3)cc2c1,0.8 nM
15,CNc1oc(-c2ccc(Cl)cc2)nc1P(=O)(c1ccccc1)c1ccccc1,0.76 nM
16,Cc1ccc(C)n1-c1ccc(N(C)C)cc1,0.75 nM
17,CNC(=O)NC(=O)CSc1nc(-c2cccs2)c(C#N)c(=O)[nH]1,3.08 nM
18,CCCOP(=O)(OCCC)C(Nc1cccc(C(F)(F)F)c1)c1ccc(C)cc1 (stereo unspecified),1.37 nM
19,O=C(Nc1ccccc1N1CCCCC1)c1cccc([N+](=O)[O-])c1,0.9 nM
20,Cn1c(=O)[nH]c(=O)c2c1nc(CN1CCN(c3cccc(Cl)c3)CC1)n2CCCc1ccccc1,1.19 nM
21,O=C(CSc1nnc(COc2ccccc2)n1-c1ccccc1)c1ccccc1,1.19 nM
22,CCCSc1nc(N2CCCC2)c2c(c1C#N)CC(C)(C)OC2,1.15 nM
23,CCOC(=O)c1c(CC(C)C)csc1N,1.47 nM
24,O=C(CSCc1c(Cl)cccc1Cl)Nc1ccccc1-c1ccccc1,1.36 nM
